Ends that are not written are not given here.
Legend:
[1] = Reversed-phase HPLC retention time as measure of peptide hydrophobicity; format: physicochemical; conditions: retention time by reverse-phase HPLC, reflects hydrophobicity difference between analogues
From the text: The physicochemical parameters crucial for the antimicrobial activity of AMPs have been identified, encompassing net charge, helicity, hydrophobicity, and amphipathicity. The hydropathicity, mean relative hydrophobic moment, and charge of peptides were predicted using the HeliQuest (https://heliquest.ipmc.cnrs.fr/ (accessed on 12 March 2024)). Lysine is a hydrophilic amino acid, and its substitution leads to a decrease in the hydrophobicity of the SAAP-148 analogue. The anticipated results are consistent, with the degree of reduction in […] varying depending on the position at which lysine is substituted (Table 2). The amphipathicity of the peptides, as denoted by the μH (mean relative hydrophobic moment), is elaborated on in Table 2. The hydrophobic moment of SAAP-148 analogues was decreased except for SAAP-10, which is on account of the substitution occurring on the18th residue. (Figure 1) The 18th residue of SAAP-148 is glutamine, a polar amino acid residue, located at the junction of the hydrophobic and hydrophilic surfaces of the SAAP-148 α-helix. […] The retention time data determined by reversed-phase high-performance liquid chromatography (RP-HPLC) reflects the hydrophobicity difference between peptide analogues. It is well documented that the formation of a hydrophobic-binding domain due to peptide secondary structure can affect peptide interactions with reversed-phase matrices. This effect was observed particularly for amphipathic α-helical peptides. Given this preferred binding domain, amphipathic α-helical peptides are considerably more retentive than non-amphipathic peptides with the same amino acid composition.
This phenomenon was particularly evident in the case of amphipathic α-helical peptides. […] This discrepancy may be attributed to the lack of a well-defined α-helical structure in SAAP-148 and its analogues (Figure S1).

five bacterial strains = assay: MICs against all five bacterial strains (geometric mean, range); format: cell-based; design: unit not given here; conditions: geometric mean of MICs against all five bacterial strains
Procedure: (§1) The antibacterial activities of the peptides against […] were evaluated using a modified version of the Clinical Laboratory and Standards Institute (CLSI) broth microdilution method, as previously described. Briefly, the bacteria were cultured in liquid LB medium (comprising 10 g/L tryptone, 5 g/L yeast extract, and 10 g/L NaCl) at 37 °C until reaching mid-log phase. Subsequently, the bacterial concentration was adjusted to 1 × 10^6 colony-forming units (CFU)/mL. The peptides were then diluted serially with phosphate-buffered saline (PBS), followed by the addition of 50 μL of the diluted peptides to 50 μL of the bacterial suspension in a 96-well plate (Corning Inc., Lowell, MA, USA). After incubating at 37 °C for 18 to 20 h, the absorbance of each well was measured using a multi-well microplate reader (SpectraMax M5; Molecular Devices, Sunnyvale, CA, USA) at 600 nm.

[2] = test system: Gram-positive bacteria (S. aureus, S. epidermidis); assay: Geometric mean of MICs against Gram-positive bacteria; format: cell-based; design: unit not given here
Procedure: as §1

[3] = test system: Klebsiella pneumonia (1.1736); format: cell-based, Klebsiella pneumoniae
From the text: (§2) The LL-37, SAAP-148 and its analogues peptides were synthesized according to the standard Fmoc procedure. The Fmoc-protected resin and monomers are first treated with a basic solvent (piperidine) to remove the amino protecting groups. The carboxyl group of the next amino acid is activated by an activator. The activated monomer reacts with the free amino group to form a peptide bond. These two steps are repeated in a cycle until the synthesis is complete. After synthesis, the peptide is eluted from the column and purified by reverse-phase semipreparative high-performance liquid chromatography as detailed in Table 1. The peptides were dissolved in PBS to create a 1000 μmol/L stock solution for subsequent use. The purity of the synthetic peptide exceeded 95%. Blood samples from healthy donors were obtained from the Fifth Medical Center of Chinese PLA General Hospital (Beijing, China). Human normal lung epithelial cells (BEAS-2B) and mouse mononuclear macrophages cells (RAW 264.7) were sourced from Beyotime Biotechnology (Beijing, China), along with the Enhanced Cell Counting Kit-8 (CCK-8) and nitric oxide detection kit. RPMI-1640 and DMEM were procured from Merck (Darmstadt, Germany), while FBS was obtained from ExCell Bio (Shanghai, China). LPS-B5 (from E. coli 055:B5) was procured from Invivogen (Toulouse, France). Five bacterial strains, including Escherichia coli (1.8732), Pseudomonas aeruginosa (1.2421), Klebsiella pneumonia (1.1736) as Gram-negative bacteria, and Staphylococcus aureus (1.8721) and Staphylococcus epidermidis (1.4260) as Gram-positive bacteria, were procured from the China General Microbiological Culture Collection Centre (CGMCC) (Beijing, China).
as §1

[4] = CD spectra, secondary structure by BeStSel; format: physicochemical; conditions: 30 μM SDS as printed, 100 μM peptide, 25 °C
Procedure: CD spectra (Figure S1) were acquired using a JASCO J-1500 spectropolarimeter (JASCO Inc., Easton, MD, USA) in 0.1 cm pathlength cells under nitrogen at 25 °C. The spectra were recorded in the range of 190 to 250 nm at a peptide concentration of 100 μM in SDS. Secondary structure was determined using the BeStSel server. Hydropathicity, mean relative hydrophobic moment, and charge of peptides were predicted using the HeliQuest (https://heliquest.ipmc.cnrs.fr/ (accessed on 12 March 2024)). The 3D structure of SAAP-148 and its analogues (Figure S2) was predicted using PEP-FOLD4 servers (https://bioserv.rpbs.univ-paris-diderot.fr/services/PEP-FOLD4/ (accessed on 19 June 2024)).

[5] = test system: Pseudomonas aeruginosa (1.2421); format: cell-based
From the text: as §2, §1

[6] = test system: Staphylococcus epidermidis (1.4260); format: cell-based
From the text: as §2, §1

[7] = test system: Staphylococcus aureus (1.8721); format: cell-based
From the text: as §2, §1

[8] = test system: Escherichia coli (1.8732); format: cell-based
From the text: as §2, §1

[9] = test system: Gram-negative bacteria (E. coli, P. aeruginosa, K. pneumoniae); assay: Geometric mean of MICs against Gram-negative bacteria; format: cell-based; design: unit not given here
Procedure: as §1

[10] = test system: human erythrocytes versus five bacterial strains; assay: Therapeutic index (MHC/GM of MIC); conditions: for Fold (TI of analogue compared with SAAP-148): TI change relative to SAAP-148; for TI (MHC/MIC): ratio of MHC to geometric mean of MIC (five strains)
Procedure: The geometric mean of minimum inhibitory concentration (MIC) values (GM) from the five strains was calculated to provide a comprehensive assessment of antimicrobial activity, as presented in Table 4.
The therapeutic index (TI) is a widely utilized parameter for indicating the specificity of antimicrobial agents, which is determined by the ratio of MHC (hemolytic activity) and MIC (antimicrobial activity). Consequently, larger TI values signify greater antimicrobial specificity. The TI can be enhanced through one of three mechanisms: increasing antimicrobial activity, reducing hemolytic activity while maintaining antimicrobial activity, or a combination of both augmenting antimicrobial activity and diminishing hemolytic activity.

Substance | Rt [1] [min] | MIC (GM) (five bacterial strains) | GM to G+ [2] | MIC K. pneumoniae [3] [µM] | Others [4] [%] | Turn [4] [%] | α-Helix [4] [%] | β-Antiparallel [4] [%] | β-Parallel [4] [%] | MIC P. aeruginosa [5] [µM] | MIC S. epidermidis [6] [µM] | MIC S. aureus [7] [µM] | MIC E. coli [8] [µM] | GM to G− [9] | Fold (TI of analogue compared with SAAP-148) [10] | TI (MHC/MIC) [10]
LKRVWKRVFKKLKRYWRQLKKPVR-NH2 [SAAP-6] | 9.213 | 3.59 | 6.24 | 6.25 | 0 | 0 | 84.4 | 15.6 | 0 | 1.56 | 1.56 | 25.00 | 1.56 | 2.48 | 15.82 | 1.74
LKRVWKRVFKLLKRYWRQLKKPKR-NH2 [SAAP-13] | 16.867 | 14.36 | 17.68 | 25.00 | 1.2 | 0 | 98.8 | 0 | 0 | 12.50 | 6.25 | 50.00 | 6.25 | 12.5 | 0.45 | 0.05
LKRVWKRVFKLLKRYWRQKKKPVR-NH2 [SAAP-11] | 15.926 | 14.36 | 12.51 | 100.00 | 0 | 0 | 100 | 0 | 0 | 6.25 | 3.13 | 50.00 | 6.25 | 15.75 | 0.45 | 0.05
LKRVWKRVKKLLKRYWRQLKKPVR-NH2 [SAAP-5] | 10.681 | 5.44 | 8.85 | 6.25 | 0 | 0 | 100 | 0 | 0 | 6.25 | 3.13 | 25.00 | 1.56 | 3.94 | 10.45 | 1.15
LKRVWKRVFKLLKRYKRQLKKPVR-NH2 [SAAP-9] | 11.941 | 6.25 | 12.51 | 12.50 | 0 | 0 | 100 | 0 | 0 | 1.56 | 3.13 | 50.00 | 3.13 | 3.94 | 9.09 | 1.00
LKRVWKRVFKLLKRKWRQLKKPVR-NH2 [SAAP-8] | 13.475 | 4.74 | 6.24 | 25.00 | 0 | 0 | 100 | 0 | 0 | 1.56 | 1.56 | 25.00 | 1.56 | 3.93 | 6 | 0.66
LKRVKKRVFKLLKRYWRQLKKPVR-NH2 [SAAP-3] | 11.208 | 6.25 | 17.69 | 6.25 | 0 | 0 | 100 | 0 | 0 | 3.13 | 3.13 | 100.00 | 1.56 | 3.12 | 72.73 | 8.00

From paper PMC11546786, “Designing Analogs of SAAP-148 with Enhanced Antimicrobial and Anti-LPS Activities” (International Journal of Molecular Sciences, 2024)
